Drawing on ChEMBL document CHEMBL1152824, “A novel insertion sequence, ISPA26, in oprD of Pseudomonas aeruginosa is associated with carbapenem resistance” (2007), this text covers MIC for 2 compounds.

The test system of test [1] is Pseudomonas aeruginosa. As to the kind of experiment: Antibacterial activity against Pseudomonas aeruginosa blood isolate 1 carrying insertion sequence ISPa26 by disk susceptibility test. It is filed as functional.
The subject of test [2] is Pseudomonas aeruginosa. Put plainly: Antibacterial activity against Pseudomonas aeruginosa pus isolate 6 carrying insertion sequence ISPa26 by disk susceptibility test. The test is classed as functional.
The test system of test [3] is Pseudomonas aeruginosa. Put plainly: Antibacterial activity against Pseudomonas aeruginosa tracheal aspirate isolate 7 carrying insertion sequence ISPa26 by disk susceptibility test. It is filed as functional.
Test [4] has as its system Pseudomonas aeruginosa. As to the kind of experiment: Antibacterial activity against Pseudomonas aeruginosa tracheal aspirate isolate 8 carrying insertion sequence ISPa26 inserted into oprD gene by disk susceptibility test. It is filed as functional.
For test [5], the system named is Pseudomonas aeruginosa. Put plainly: Antibacterial activity against Pseudomonas aeruginosa tracheal aspirate isolate 12 carrying insertion sequence ISPa26 by disk susceptibility test. The test is classed as functional.
Test [6] deals with Pseudomonas aeruginosa. As to the kind of experiment: Antibacterial activity against Pseudomonas aeruginosa cystic fibrosis sputum isolate 286 carrying insertion sequence ISPa26 by disk susceptibility test. It is filed as functional.
In test [7] the test system is Pseudomonas aeruginosa. Put plainly: microbe, parasite or virus in culture.
Description: Antibacterial activity against Pseudomonas aeruginosa cystic fibrosis sputum isolate 529 carrying insertion sequence ISPa26 by disk susceptibility test

Values after ≈ are worked out from the molar mass of the structure shown.

Turning to `C[C@@H](O)[C@H]1C(=O)N2C(C(=O)O)=C(SCCNC=N)C[C@H]12` [IMIPENEM ANHYDROUS], the MIC with Pseudomonas aeruginosa [1] was more than 32 µg/mL; with Pseudomonas aeruginosa [2], more than 32 µg/mL; in the test on Pseudomonas aeruginosa [3], more than 32 µg/mL; against Pseudomonas aeruginosa [4], more than 32 µg/mL; with Pseudomonas aeruginosa [5], 2 µg/mL (≈ 6.68 µM); with Pseudomonas aeruginosa [6], more than 32 µg/mL. In the test with Pseudomonas aeruginosa [7], the MIC was 1 µg/mL (≈ 3.34 µM).
In the case of `C[C@@H](O)[C@H]1C(=O)N2C(C(=O)O)=C(S[C@@H]3CN[C@H](C(=O)N(C)C)C3)[C@H](C)[C@H]12` [MEROPENEM], the MIC in the test with Pseudomonas aeruginosa [1] is more than 32 µg/mL; with Pseudomonas aeruginosa [2] it was 6 µg/mL (≈ 15.6 µM); in the test with Pseudomonas aeruginosa [3] it was 6 µg/mL (≈ 15.6 µM); against Pseudomonas aeruginosa [4], more than 32 µg/mL; against Pseudomonas aeruginosa [5], 3 µg/mL (≈ 7.82 µM); against Pseudomonas aeruginosa [6] it was more than 32 µg/mL. Moreover, the MIC against Pseudomonas aeruginosa [7] was determined as 2 µg/mL (≈ 5.22 µM).
